Experimental data taken from patent US8822452B2, “Inhibitor compounds of 11-beta-hydroxysteroid dehydrogenase type 1” (Laboratorios Salvat, S.A., priority 2009, dated 2014).
“And” between values parts separate entries of the source, which are not always exact repeats. Equal entries are not always repeated.

Tests used:
[1] = target: T1, 11-beta-HSD2 (Homo sapiens, UniProt P80365); assay: Inhibitory activity of 11-beta-HSD2 in the microsomal fraction of transfected HEK293 cells (SPA, [3H]-cortisol); assay type: biochemical; conditions: for inhibition at 10 µM: microsomes of HEK-293 cells transfected with 11-beta-HSD2
T1 construct: expressed in transfected cells; host or cells: HEK-293 cells, stably transfected; microsome preparation
T1 sequence (P80365 1-405): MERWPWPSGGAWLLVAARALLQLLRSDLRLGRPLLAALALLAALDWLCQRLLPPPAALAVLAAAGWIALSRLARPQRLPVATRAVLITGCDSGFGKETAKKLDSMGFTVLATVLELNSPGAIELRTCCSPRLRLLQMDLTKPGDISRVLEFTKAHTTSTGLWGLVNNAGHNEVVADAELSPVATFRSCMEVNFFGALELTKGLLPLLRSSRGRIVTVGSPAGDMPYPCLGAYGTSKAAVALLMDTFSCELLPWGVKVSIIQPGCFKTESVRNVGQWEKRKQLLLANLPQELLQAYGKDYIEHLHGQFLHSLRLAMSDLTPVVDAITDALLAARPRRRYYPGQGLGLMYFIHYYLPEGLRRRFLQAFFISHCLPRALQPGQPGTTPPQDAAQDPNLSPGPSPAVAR
Experimental: Determination of the Inhibitory Activity of 11-Beta-HSD2 in the Microsomal Fraction of Transfected HEK293 Cells
59 μL of the reaction mixture were added to a 96-well plate. This contained 1 mM NAD^+ and 80 μg/mL of the microsome preparations of HEK-293 cells stably transfected with the 11-beta-HSD2 clone, dissolved in assay buffer (50 mM HEPES, 100 mM KCl, 5 mM NaCl, 2 mM MgCl2/100 mL H2O). The inhibitors to be analyzed were dissolved in 100% DMSO, and the final concentration in the reaction was 1%. The reaction mixture was pre-incubated for 30 minutes at 37° C. under stirring. 40 μL of the reaction substrate, 3.2 nM [^3H]-cortisol dissolved in assay buffer were added. It was incubated at 37° C. for two hours under stirring. The stop solution was simultaneously prepared, being incubated for two hours at rt and protected from light. After this time 50 μL of the stop solution were added to end the reaction, and it was incubated for two hours at rt under stirring and protected from light. The signal emitted by SPA beads-cortisol complex was measured in the 1450 Microbeta Tritalux (Wallac®) scintillation counter for 30 seconds per well. This case measures the binding to the substrate, and not to the product as in the assay for the type 1 isoenzyme.

[2] = target: T2, 11-beta-HSD1 (Homo sapiens, UniProt P28845); assay: Inhibitory activity of 11-beta-HSD1 in the microsomal fraction of transfected HEK293 cells (SPA, [3H]-cortisone); assay type: biochemical; conditions: microsomes of HEK-293 cells transfected with 11-beta-HSD1
T2 construct: expressed in transfected cells; host or cells: HEK-293 cells, stably transfected; microsome preparation
Experimental: Determination of the Inhibitory Activity of 11-Beta-HSD1 in the Microsomal Fraction of Transfected HEK293 Cells
99 μL of a reaction mixture which contained 80 nM [^3H]-cortisone, 1 mM NADPH and 40 μg/mL of the microsome preparations of HEK-293 cells stably transfected with the 11-beta-HSD1 clone, dissolved in assay buffer (50 mM HEPES, 100 mM KCl, 5 mM NaCl, 2 mM MgCl2/100 mL H2O) were added to a 96-well plate. The inhibitors to be analyzed were dissolved in 100% DMSO, and the final concentration in the reaction was 1%.
The reaction mixture was incubated for 2 hours at 37° C. under stirring. The total reaction volume per well was 100 μL. The stop solution (5 mg/mL ProteinA Spa bead, Superblock Blocking Buffer, 30 μM glycyrrhetinic acid, 1 μg/mL anticortisol monoclonal antibody) was simultaneously prepared, being incubated under stirring for two hours at rt and protected from light. Once the two hours lapsed, 50 μL of the stop solution were dispensed to each well in the reaction plate and was left to incubate for two hours at rt under stirring and protected from light. Once the second incubation ended, the plate was read in a 1450 Microbeta Tritalux (Wallac®) scintillation counter for 30 seconds per well.

[3] = Acute glaucoma model: glucose-induced ocular hypertension in rabbit (IOP); assay type: in vivo, Chinchilla Bastard rabbits; conditions: for Glucose-induced Hypertension Ratio Inhibitor/Timolol: 0.5% suspension versus Timolol maleate solution 0.5%; for Glucose-induced Hypertension % Inhibition: eye instillation of 0.5% suspension 15 minutes before 5% glucose bolus 20 ml/kg
Experimental: In Vivo Efficacy of 11beta-HSD1 Inhibitors
In vivo efficacy of 11beta-HSD1 inhibitors was evaluated in an acute glaucoma model based on a glucose-induced ocular hypertension model in rabbit.
Male Chinchilla Bastard rabbits (1.5-2.5 kg) were obtained from Charles River (Germany) and were kept under controlled environmental conditions (12-hour light/12-hour dark cycle) with food and drinking water ad libitum. Animals were treated in accordance with the ARVO Statement for the Use of Animals in Ophthalmic and Vision Research.
In order to measure intraocular pressure (IOP) according to the glucose-induced ocular hypertension model, rabbits were restrained and basal IOP was determined using a Tonolab tonometer (Tiolat Oy) at least 1 hour after initial immobilization. Acute ocular hypertension was induced by a bolus of 5% glucose solution at 20 ml/kg into the marginal ear vein and IOP was determined 5, 10, 20, 30 and 40 minutes later. Eye treatment instillation was performed 15 minutes before the hypertension induction and both eyes of each animal were instilled with the same solution, either the vehicle, the 11beta-HSD1 inhibitor suspension at 0.5% or Timolol maleate solution at 0.5% as a positive control.

T2 sequence (P28845 whole entry): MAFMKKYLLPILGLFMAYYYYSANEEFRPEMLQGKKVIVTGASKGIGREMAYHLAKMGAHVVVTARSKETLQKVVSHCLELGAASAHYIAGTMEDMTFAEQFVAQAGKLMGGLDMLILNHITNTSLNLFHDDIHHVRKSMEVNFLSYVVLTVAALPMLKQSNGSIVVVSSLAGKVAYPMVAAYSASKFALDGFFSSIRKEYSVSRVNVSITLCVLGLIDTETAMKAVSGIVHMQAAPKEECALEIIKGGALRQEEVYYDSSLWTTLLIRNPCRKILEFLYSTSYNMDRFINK

**Q.** What does the source list for O=C(CCCC(=O)N1CCCC2CCCCC21)NCCc1ccccc1 (centres unmarked) [Ia.59, 5-(octahydroquinolin-1-yl)-5-oxopentanoic acid phenethylamide]?
**A.** inhibition at 10 µM [1]: 0%; inhibition at 10 µM [2]: 100%

**Q.** With O=C(CCCC(=O)N1CCCC2CCCCC21)NCc1ccccc1 (centres unmarked) [Ia.61, 5-(octahydroquinolin-1-yl)-5-oxopentanoic acid benzylamide] as the compound, how does the inhibition at 10 µM [1] read?
**A.** 0%

**Q.** And the inhibition at 10 µM [2]?
**A.** 93%

**Q.** Which inhibition at 10 µM [1] does the source give for CN(Cc1cccc2ccccc12)C(=O)CCCC(=O)N1CCCC2CCCCC21 (centres unmarked) [Ia.66, 5-(octahydroquinolin-1-yl)-5-oxopentanoic acid methylnaphthalen-1-ylmethylamide] here?
**A.** 6%

**Q.** And the inhibition at 10 µM [2]?
**A.** 100%

**Q.** Which “Glucose-induced Hypertension Ratio Inhibitor/Timolol” value [3] does the source give for O=C(CCCCC(=O)N1CCCC2CCCCC21)NC1C2CC3CC(C2)CC1C3 (centres unmarked) [Ia.96, 6-(octahydroquinolin-1-yl)-6-oxohexanoic acid tricyclo[3.3.1.1^3,7]decan-2-ylamide] here?
**A.** 0.84

**Q.** What about the “Glucose-induced Hypertension % Inhibition” value [3] of the same compound?
**A.** 46%

**Q.** For O=C(CCCC(=O)N1CCCC2CCCCC21)NCCc1cccc(F)c1 (centres unmarked) [Ia.198, 5-(octahydroquinolin-1-yl)-5-oxopentanoic acid N-(3-fluorophenethyl)amide], which “Glucose-induced Hypertension Ratio Inhibitor/Timolol” value [3] is on record?
**A.** 0.65

**Q.** What about the “Glucose-induced Hypertension % Inhibition” value [3] of the same compound?
**A.** 41%

**Q.** Which “Glucose-induced Hypertension Ratio Inhibitor/Timolol” value [3] does the source give for O=C(CCCC(=O)N1CCCC2CCCCC21)NC1CCCc2ccccc21 (centres unmarked) [Ia.224, 5-(octahydroquinolin-1-yl)-5-oxopentanoic acid N-(1,2,3,4-tetrahydronaphthalen-1-yl)amide] here?
**A.** 0.25

**Q.** And the “Glucose-induced Hypertension % Inhibition” value [3]?
**A.** 16%

**Q.** Which results are given for CN(Cc1cccc2ccccc12)C(=O)CCCNC(=O)N1CCCC2CCCCC21 (centres unmarked) [Ib.8, Octahydroquinoline-1-carboxylic acid [3-(methylnaphthalen-1-ylmethylcarbamoyl)propyl]amide]?
**A.** % Inhibition (10 μM) 11-beta-HSD2 ([1]; microsomes of HEK-293 cells transfected with 11-beta-HSD2, 10 µM): 0% and 5%; inhibition at 10 µM [2]: 100%

**Q.** Which results are given for O=C(CCCNC(=O)N1CCCC2CCCCC21)N1CCC2CCCCC2C1 (centres unmarked) [Ib.18, Octahydroquinoline-1-carboxylic acid [4-(octahydroisoquinolin-2-yl)-4-oxobutyl]amide]?
**A.** inhibition at 10 µM [1]: 10%; inhibition at 10 µM [2]: 100%

**Q.** What does the source list for CN(Cc1cccc2ccccc12)C(=O)CCCNC(=O)N1CCC2CCCCC2C1 (centres unmarked) [Ib.80, Octahydroisoquinoline-2-carboxylic acid [3-(methylnaphthalen-1-ylmethylcarbamoyl)propyl]amide]?
**A.** inhibition at 10 µM [1]: 13%; inhibition at 10 µM [2]: 100%

**Q.** Which inhibition at 10 µM [1] does the source give for O=C(NCCC(=O)N1CCCC2CCCCC21)c1cc2ccccc2cn1 (centres unmarked) [Id.6, Isoquinoline-3-carboxylic acid [3-(octahydroquinolin-1-yl)-3-oxopropyl]amide] here?
**A.** 0%

**Q.** What about the inhibition at 10 µM [2] of the same compound?
**A.** 100%

**Q.** With O=C(NCCC(=O)N1CCCC2CCCCC21)c1ccc2ccccc2n1 (centres unmarked) [Id.12, Quinoline-2-carboxylic acid[3-(octahydroquinolin-1-yl)-3-oxopropyl]amide] as the compound, how does the inhibition at 10 µM [1] read?
**A.** 0%

**Q.** And the inhibition at 10 µM [2]?
**A.** 100%

**Q.** And the “Glucose-induced Hypertension Ratio Inhibitor/Timolol” value [3]?
**A.** 0.87

**Q.** And the “Glucose-induced Hypertension % Inhibition” value [3]?
**A.** 50%

**Q.** For O=C1c2ccccc2C(=O)N1CCCCC(=O)N1CCCC2CCCCC21 (centres unmarked) [If.1, 2-(5-(octahydroquinolin-1-yl)-5-oxopentyl)isoindoline-1,3-dione], which inhibition at 10 µM [1] is on record?
**A.** 0%

**Q.** What about the inhibition at 10 µM [2] of the same compound?
**A.** 100%

**Q.** What about the “Glucose-induced Hypertension Ratio Inhibitor/Timolol” value [3] of the same compound?
**A.** 0.90

**Q.** What about the “Glucose-induced Hypertension % Inhibition” value [3] of the same compound?
**A.** 51%

**Q.** Which results are given for O=C(CCCCN1C(=O)c2ccccc2C1=O)N1CCC2CCCCC2C1 (centres unmarked) [If.8, 2-(5-(octahydroisoquinolin-2-yl)-5-oxopentyl) isoindoline-1,3-dione]?
**A.** inhibition at 10 µM [1]: 4%; inhibition at 10 µM [2]: 100%

**Q.** Which inhibition at 10 µM [1] does the source give for O=C1c2ccc(F)cc2C(=O)N1CCCCC(=O)N1CCCC2CCCCC21 (centres unmarked) [Ik.25, 5-fluoro-2-[5-(octahydroquinolin-1-yl)-5-oxopentyl]isoindole-1,3-dione] here?
**A.** 6%

**Q.** What about the inhibition at 10 µM [2] of the same compound?
**A.** 100%
